Test results taken from US4634782A, “7-fluoro-dihydro PGI compounds” (Hoffmann-La Roche Inc., priority 1985, dated 1987).
Structures can show the parent of a compound that is named as a salt. Where two headings read alike, the source gives them in different places.

Legend:
[1] = tested on: human platelet rich plasma (PRP); test: Inhibition of blood platelet aggregation in human platelet rich plasma (PRP), test of Professor Born, optical density; assay type: cell-based; details: 0.45 ml human PRP, two separate tests, two donors
Experimental: That the 7-fluoro prostacyclins are potent blood platelet anti-aggregating agents can be seen when the following compounds:
were tested against PGI2 for their blood platelet anti-aggregation properties by the standard test described by Professor Born in Nature, 194 927, (1962).
In this test, the ability of the above compounds to inhibit aggregation of blood platelets in 0.45 ml of human platelet rich plasma (PRP) was measured. Aggregation was induced by the addition of any one of arachidonic acid (AA), platelet activating factor (PAF) or collagen. PAF and its synthesis is disclosed by Hirth and Barner in Helv. Chim. Acta. Vol. 65; Fasc. 3, page 1059 (1982) [Compound 1-a on page 1061]. By titration of AA, collagen and PAF at various concentrations in 0.45 ml samples of PRP, the minimum amount of AA, collagen and PAF which produces maximum blood platelet aggregation in a given sample of human platelet rich plasma (PRP) was determined. This minimum amount was used when the compounds set forth above were tested for their ability to inhibit blood platelet aggregation in samples of PRP as described below.
In carrying out the tests, various concentrations of the test compound were added to separate samples of human platelet rich plasma (PRP). To each of these samples of PRP containing a specific concentration of one of the above test compounds, there was added the minimum amount of AA, PAF, or collagen calculated above. The controls are samples of PRP containing no test compound but only the minimum amount of AA, PAF, or collagen determined above. The percent aggregation of the various samples was determined by measuring the optical density of the samples and comparing them with the optical density of the controls. This determination was made two minutes after the maximum first phase response of PAF, AA or collagen. This determination was made with freshly prepared samples of test compounds. A second determination was made in the same manner with samples of PRP two hours after the addition of AA, PAF or collagen. The IC50, the dose at which the optical density of the samples decrease to a value which is fifty (50%) percent of the value of the control was determined by the method disclosed by Professor Born's article. The IC50 values for the minimum dose were made from concentration response curve. These IC50 's were determined in two separate tests using PRP from two separate donors. The results of the minimum dose of each of the test compounds which reduces fifty (50%) percent of the aggregation of the platelets produced by any one of AA, PAF, or collagen is set forth in the following Table: […]

[2] = tested on: cyclic AMP in human platelet rich plasma (PRP); test: Cyclic AMP production in human blood platelets (platelet rich plasma), protein binding method of Brown et al.; assay type: cell-based; details: 0.1 mM, percent increase in cyclic AMP compared to basal (vehicle alone), pH 7.4, 22 C, read-out: Cyclic AMP Production, o/o stimulative of Basal at 0.1 mM
Experimental: Cyclic AMP prevents aggregation of blood platelets. Through increasing cyclic AMP, the compounds of this invention prevent blood platelet aggregation. That the compounds of this invention increase cyclic AMP can be seen from the following test.
In this test, human platelet rich plasma (PRP) was prepared by centrifugation of blood treated with 0.38% by weight sodium citrate at 180×g (times gravity) for ten minutes. The PRP ([…] containing approximately 2×10^7 platelets) is incubated for two minutes at 22 C, with and without the test compound, in a Tris-HCl buffer for ten minutes pH 7.4 containing 5.5 mM HCl, 1 mM Mg SO4, 5 mM Na2 H PO4, 120 mM NaCl, and 5.5 mM glucose in a fluid volume of […]. The reaction was terminated by placing the samples in boiling water for 3 minutes. The boiled extract was assayed for cyclic AMP by the protein binding method of Brown et al. (Biochemical Journal 121:561-562, 1971). The activity of this test compound at 0.1 mM is measured as the percent increase in cyclic AMP production compared to base 1 (vehicle alone) production.

[3] = Platelet, aggregation induced by minimum amount of arachidonic acid (AA), read-out: Aggregation IC50, AA
[4] = aggregation induced by minimum amount of platelet activating factor (PAF), read-out: Aggregation IC50, PAF
[5] = Platelet, aggregation induced by minimum amount of collagen, read-out: Aggregation IC50, Collagen

| SMILES | IC50 [1, 3] | IC50 [1, 4] | activation at 100 µM [2] | IC50 [1, 5] |
| --- | --- | --- | --- | --- |
| CCCCC[C@H](O)CC[C@@H]1[C@@H]2[C@H](C[C@H]1O)O/C(=C\CCCC(=O)O)[C@H]2F [Compound A, (5Z,7beta,9alpha,11alpha,15S)-6,9-epoxy-7-fluoro-11,15-dihydroxy-prost-5-en-1-oic acid monosodium salt] | 23 nM | 15 nM | 998% | – |
| CCCC[C@H](F)[C@H](O)CC[C@@H]1[C@@H]2[C@H](C[C@H]1O)O/C(=C\CCCC(=O)O)[C@H]2F [Compound B, (5Z,7beta,9alpha,11alpha,15R,16S)-6,9-epoxy-7,16-difluoro-11,15-dihydroxy-prost-5-en-1-oic acid monosodium salt] | 20 nM | 6 nM | – | 6 nM |
| CCCCC[C@H](O)/C=C/[C@@H]1[C@H]2C/C(=C/CCCC(=O)O)O[C@H]2C[C@H]1O [PGI2, reference compound] | 0.45 nM | 0.15 nM | – | 2 nM |
